From ChEMBL document CHEMBL1137384, “Benzopyrans are selective estrogen receptor beta agonists with novel activity in models of benign prostatic hyperplasia” (J Med Chem, 2006)
Activity calls are given as the source filed them. The calls are words filed in the database; no cut-off is given here.

Key:
Assay type in all cases: functional, organism-based
Mus musculus [1] = test: Ventral prostate involution in CD1 mouse at 30 mg/kg, po after 7 days; parameters: dose 30 mg/kg; conditions: Prostate gland
Mus musculus [2] = test: Effect on ventral prostate weight in po dosed CD1 mouse after 7 days; conditions: Prostate gland
Mus musculus [3] = test: Effect on seminal vesicle weight in po dosed CD1 mouse after 7 days
Mus musculus [4] = test: Effect on testes weight in po dosed CD1 mouse after 7 days; conditions: Testis
Mus musculus [5] = test: Effect on testosterone level in CD1 mouse plasma at 0.1 mg/kg, po after 7 days; parameters: dose 0.1 mg/kg
Mus musculus [6] = test: Effect on dihydro testosterone level in CD1 mouse plasma at 0.1 mg/kg, po after 7 days; parameters: dose 0.1 mg/kg

Row | SMILES | Activity (Mus musculus [1]) | Activity (Mus musculus [2]) | Activity (Mus musculus [3]) | Activity (Mus musculus [4]) | Activity (Mus musculus [5]) | Activity (Mus musculus [6])
1 | CC(C)(C)NC(=O)[C@H]1CC[C@H]2[C@@H]3CC[C@H]4NC(=O)C=C[C@]4(C)[C@H]3CC[C@]12C | Active |  |  |  |  | 
2 | Oc1ccc([C@@H]2Oc3ccc(O)cc3[C@@H]3CCC[C@@H]32)cc1 | Active | Dose-dependent effect | inactive | inactive | inactive | inactive
